PMC9926234, “Iterative computational design and crystallographic screening identifies potent inhibitors targeting the Nsp3 macrodomain of SARS-CoV-2” (Proceedings of the National Academy of Sciences of the …, 2023)
Where “and” joins values, the source holds several entries; their conditions need not be identical. Identical values can stand only once. Like-named read-outs stand apart in the source and are kept apart here.

Columns and labels:
Assay type in all cases: binding
SARS-CoV-2 NSP3 Mac1 [1] = target: T1, SARS-CoV-2 NSP3 Mac1 (Severe acute respiratory syndrome coronavirus 2, UniProt P0DTD1); experiment: biochemical; conditions: for Ki: Ki estimation from HTRF-derived IC50, Cheng-Prusoff, peptide 400nM, Kd 2.68µM, read-out: Ki***; for IC50: read-out: IC50
SARS-CoV-2 NSP3 Mac1 [2] = target: T1, SARS-CoV-2 NSP3 Mac1; conditions: for Refined occupancy: ligand occupancy after refinement (phenix.refine); for HIT*: true hit = binding in crystallographic soaking or the HTRF-based binding assay
SARS-CoV-2 NSP3 Mac1 [3] = target: T1, SARS-CoV-2 NSP3 Mac1; parameters: contains a conserved macrodomain enzyme (Mac1); conditions: for Spearman est (compound concentration vs apparent Tm): DSF dose responsiveness, 1 µM nsp3 mac1, adj p given; for DSF max dTma: maximal thermal upshift
Outline: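 ΔTma values are thermal shifts relative to a co-located DMSO-only control, read with 5 µM Fluorescent Yellow dye. Each compound was tested in triplicate over seven concentrations (two-fold steps, top 1,000 or 100 μM). Spearman correlation of concentration versus ΔTma tested whether the shift was dose-responsive.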

[4] = PanDDA 1-BDC value of the event, crystal soak, compound concentration 100 mM, per dataset
[5] = PanDDA event map, 1 minus background density correction, crystal soaking of Mac1
[6] = crystal soak, compound concentration 100 mM, per dataset
[7] = ligand modeled in the crystal structure, crystal soak, compound concentration 100 mM, per dataset
[8] = ligand modeled from this dataset, compound concentration 100 mM, Echo dispense volume 40 or 80 nl
[9] = HTRF ADPr-peptide displacement from SARS-CoV-2 Mac1
[10] = PanDDA 1-BDC of the event, compound stock 100 mM, Echo dispense volume 40 nl
[11] = PanDDA event map 1-BDC, crystal soak, Compound_concentration 100 mM, PanDDA run dmso_34 or nohits_35 per dataset
[12] = crystal soak, Compound_concentration 100 mM, Echo dispense 40 nl, PanDDA run dmso_34 or nohits_35 per dataset
[13] = crystal soak, compound stock 100 mM, Echo dispense volume 40 nl
[14] = ligand modeled in structure, compound stock 100 mM, Echo dispense volume 40 nl
[15] = PanDDA 1-BDC of the event, compound stock 100 mM, Echo dispense volume 80 nl
[16] = crystal soak, compound stock 100 mM, Echo dispense volume 80 nl
[17] = ligand modeled in structure, compound stock 100 mM, Echo dispense volume 80 nl

Row | SMILES | Ki (SARS-CoV-2 NSP3 Mac1 [1]) [µM] | 1-BDC (SARS-CoV-2 NSP3 Mac1 [2]; [4]) | 1-BDC (SARS-CoV-2 NSP3 Mac1 [2]; [5]) | PanDDA hit? (SARS-CoV-2 NSP3 Mac1 [2]; [6]) | Refined occupancy (SARS-CoV-2 NSP3 Mac1 [2]; crystal soaking of Mac1) | HIT* (SARS-CoV-2 NSP3 Mac1 [2]) | Spearman est (compound concentration vs apparent Tm) (SARS-CoV-2 NSP3 Mac1 [3]) | DSF max dTma (SARS-CoV-2 NSP3 Mac1 [3]) | Modeled? (SARS-CoV-2 NSP3 Mac1 [2]; [8]) | IC50 (SARS-CoV-2 NSP3 Mac1 [1]; HTRF) [µM] | IC50 (SARS-CoV-2 NSP3 Mac1 [1]; [9]) | 1-BDC (PanDDA) (SARS-CoV-2 NSP3 Mac1 [2]; [5]) | other results
1 | O=C(NC1c2cccc(O)c2CC1C(=O)O)c1cnc2c(c1)CCCN2 (stereo not shown) [8539_0006] | 146 | 0.1 | 0.1 | TRUE | 20 | Y | −0.43 | 0 ˚C |  |  |  |  | Modeled? (SARS-CoV-2 NSP3 Mac1 [2]; [7]): TRUE
2 | O=C(NC1c2cccc(O)c2CC1C(=O)O)c1cnc(NC2CCOCC2)cn1 (stereo not shown) [8539_0007] | 5.6 | 0.2 | 0.19 | TRUE | 60 | Y | 0.24 | 3.42 ˚C | TRUE |  |  |  | 
3 | O=C(NC1c2cccc(O)c2CC1C(=O)O)c1ccc(NCC2CC2)nc1 (stereo not shown) [8539_0009] | 14.9 | 0.18 | 0.24 | TRUE | 70 | Y | 0.34 | 2.03 ˚C | TRUE |  |  |  | 
4 | O=C1COc2cc(C(=O)NC3c4cccc(O)c4CC3C(=O)O)ccc2N1 (stereo not shown) [8539_0014] | 24.3 | 0.29 | 0.29 | TRUE | 58 | Y | 0.59 | 1.83 ˚C | TRUE |  |  |  | 
5 | O=C(Nc1ccc(C(=O)NC2c3ccccc3CC2C(=O)O)cc1)NC1CC1 (stereo not shown) [8539_0029] | 4.2 | 0.13 | 0.11 | TRUE | 22 | Y | 0.73 | 3.66 ˚C | TRUE |  |  |  | 
6 | O=C(Nc1ccc(C(=O)N[C@H]2c3ccccc3CC[C@H]2C(=O)O)cc1)NC1CC1 [8539_0030] | 5.1 | 0.32 | 0.32 | TRUE | 64 | Y | 0.86 | 4.92 ˚C |  |  |  |  | Modeled? (SARS-CoV-2 NSP3 Mac1 [2]; [7]): TRUE
7 | O=C(O)CC1CN(c2ncnc3[nH]ccc23)CC2(CCC2)O1 (stereo not shown) [F6831] | 38.5 |  |  |  |  | Y | 0.94 | 2.21 ˚C |  | 44.2 |  |  | binding to Mac1 in crystal soaking, result in words (SARS-CoV-2 NSP3 Mac1 [2]; soaks at 10 to 20 mM): not confirmed by X-ray crystallography
8 | O=C(O)C[C@@H]1CN(c2ncnc3[nH]c4cc(F)ccc4c23)C[C@H](CO)O1 [LL114_0001] | 7.1 |  |  |  | 24 | Y |  |  |  | 8.2 | 8 µM | 0.12 | 1-BDC (SARS-CoV-2 NSP3 Mac1 [2]; [10]): 0.12; 1-BDC (SARS-CoV-2 NSP3 Mac1 [2]; [11]): 0.14; PanDDA hit? (SARS-CoV-2 NSP3 Mac1 [2]; [12]): TRUE; PanDDA hit? (SARS-CoV-2 NSP3 Mac1 [2]; [13]): TRUE; Modeled? (SARS-CoV-2 NSP3 Mac1 [2]; [14]): TRUE
9 | O=C(O)CC1CN(c2ncnc3[nH]c4cc(Br)ccc4c23)CCO1 (stereo not shown) [LL114_0014] | 22.5 |  |  |  |  | Y |  |  |  | 25.9 |  |  | 
10 | CS(=O)(=O)NC(=O)C1CN(c2ncnc3[nH]c4cc(F)ccc4c23)CCO1 (stereo not shown) [LL114_0019] | 10.7 |  |  |  | 20 | Y |  |  |  | 12.3 | 12 µM | 0.1 | 1-BDC (SARS-CoV-2 NSP3 Mac1 [2]; [10]): 0.1; PanDDA hit? (SARS-CoV-2 NSP3 Mac1 [2]; [13]): TRUE; Modeled? (SARS-CoV-2 NSP3 Mac1 [2]; [14]): TRUE
11 | O=C(O)C1(F)CN(c2ncnc3[nH]c4cc(Br)ccc4c23)CC12CCC2 (stereo not shown) [LL123_0006] | 80.8 |  |  |  | 16 | Y |  |  |  | 92.9 |  | 0.08 | 1-BDC (SARS-CoV-2 NSP3 Mac1 [2]; [10]): 0.08; 1-BDC (SARS-CoV-2 NSP3 Mac1 [2]; [15]): 0.15; PanDDA hit? (SARS-CoV-2 NSP3 Mac1 [2]; [13]): TRUE; PanDDA hit? (SARS-CoV-2 NSP3 Mac1 [2]; [16]): TRUE; Modeled? (SARS-CoV-2 NSP3 Mac1 [2]; [14]): TRUE
12 | O=C(O)C1CN(c2ncnc3[nH]c4cc(F)ccc4c23)CCC12CCC2 (stereo not shown) [LL123_0029] | 13.8 |  |  |  | 22 | Y |  |  |  | 15.9 | 16 µM | 0.11 | 1-BDC (SARS-CoV-2 NSP3 Mac1 [2]; [15]): 0.11; PanDDA hit? (SARS-CoV-2 NSP3 Mac1 [2]; [16]): TRUE; Modeled? (SARS-CoV-2 NSP3 Mac1 [2]; [17]): TRUE
13 | CS(=O)(=O)NC(=O)C1(F)CN(c2ncnc3[nH]c4cc(F)ccc4c23)CC12CCC2 (stereo not shown) [LL123_0036] | 14.8 |  |  |  | 36 | Y |  |  |  |  | 17.1 µM and 17 µM | 0.18 | 1-BDC (SARS-CoV-2 NSP3 Mac1 [2]; [15]): 0.18; 1-BDC (SARS-CoV-2 NSP3 Mac1 [2]; [11]): 0.2; PanDDA hit? (SARS-CoV-2 NSP3 Mac1 [2]; [12]): TRUE; PanDDA hit? (SARS-CoV-2 NSP3 Mac1 [2]; [16]): TRUE; Modeled? (SARS-CoV-2 NSP3 Mac1 [2]; [17]): TRUE
